Key:
RAW264.7 = assay: Antiinflammatory activity in mouse RAW264.7 cells assessed as inhibition of LPS-induced NO production at 10 uM after 24 hrs by Griess reagent based assay relative to control; assay type: functional; details: RAW264.7, 24 h
[1] = biological target: Mushroom tyrosinase (Agaricus bisporus) (UniProt O42713+Q00024+C7FF04+C7FF05); assay: Inhibition of mushroom tyrosinase at 10 uM using L-tyrosine as substrate incubated for 15 mins followed by substrate addition relative to control
MCF7 [2] = assay: Growth inhibition of human MCF7 cells at 10 uM after 24 hrs by MTS assay relative to control; assay type: functional; details: MCF7, 24 h, read-out: GI
[3] = biological target: T1, Tyrosine-protein phosphatase non-receptor type 1 (Homo sapiens) (UniProt P18031); assay: Inhibition of recombinant human PTP1B using p-nitrophenyl phosphate as substrate at 10 uM after 30 mins relative to control
T1 sequence (whole entry): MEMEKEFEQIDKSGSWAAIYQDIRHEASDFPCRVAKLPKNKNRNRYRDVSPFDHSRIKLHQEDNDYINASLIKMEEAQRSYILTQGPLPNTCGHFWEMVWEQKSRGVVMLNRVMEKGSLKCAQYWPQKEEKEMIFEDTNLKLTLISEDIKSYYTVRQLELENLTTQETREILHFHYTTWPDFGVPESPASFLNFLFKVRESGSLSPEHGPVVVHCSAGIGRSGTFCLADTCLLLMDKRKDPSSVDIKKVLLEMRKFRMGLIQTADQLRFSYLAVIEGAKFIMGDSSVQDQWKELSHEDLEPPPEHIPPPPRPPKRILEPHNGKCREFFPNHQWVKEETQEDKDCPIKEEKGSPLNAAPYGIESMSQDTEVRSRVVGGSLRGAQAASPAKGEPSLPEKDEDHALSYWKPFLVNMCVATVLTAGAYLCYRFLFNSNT

[4] = Growth inhibition of human LO2 cells at 10 uM after 24 hrs by MTS assay relative to control; assay type: cell-based, L02; details: LO2 cells, read-out: GI
SW480 [5] = assay: Growth inhibition of human SW480 cells at 10 uM after 24 hrs by MTS assay relative to control; assay type: functional; details: SW480, 24 h, read-out: GI
[6] = Inhibition of LPS-induced NF-kappaB transcription (unknown origin) expressed in human SW480 cells by luciferase reporter gene assay; assay type: cell-based
HepG2 = assay: Growth inhibition of human HepG2 cells at 10 uM after 24 hrs by MTS assay relative to control; assay type: functional; details: HepG2, 24 h, read-out: GI
Homo sapiens = organism: Homo sapiens; assay: Inhibition of LPS-induced NF-kappaB transcription (unknown origin) expressed in human SW480 cells at 10 uM by luciferase reporter gene assay; assay type: cell-based
[7] = Growth inhibition of human HEK293T cells at 10 uM after 24 hrs by MTS assay relative to control; assay type: cell-based, HEK-293T; details: HEK293T cells, read-out: GI
SW480 [8] = assay: Cytotoxicity against human SW480 cells assessed as reduction in cell viability after 24 hrs by MTS assay; assay type: functional, cell-based; details: SW480, 24 h
MCF7 [9] = assay: Cytotoxicity against human MCF7 cells assessed as reduction in cell viability after 24 hrs by MTS assay; assay type: functional, cell-based; details: MCF7, 24 h
[10] = biological target: T2, Tyrosine-protein phosphatase non-receptor type 1 (Homo sapiens, UniProt P18031); assay: Inhibition of recombinant human PTP1B using p-nitrophenyl phosphate as substrate after 30 mins
T2 sequence (P18031 whole entry): T1 sequence (whole entry)

SMILES	inhibition at 10 µM (RAW264.7) [%]	inhibition [1] [%]	inhibition of growth at 10 µM (MCF7 [2]) [%]	inhibition [3] [%]	inhibition at 24 h, 10 µM [4] [%]	inhibition of growth at 10 µM (SW480 [5]) [%]	IC50 [6] [µM]	inhibition of growth at 10 µM (HepG2) [%]	inhibition (Homo sapiens) [%]	inhibition at 24 h, 10 µM [7] [%]	IC50 (SW480 [8]) [µM]	IC50 (MCF7 [9]) [µM]	IC50 [10] [µM]
C=CC(C)(C)c1cc(/C=C/C(=O)c2ccc(O)cc2)c(OC)cc1O [LICOAGROCHACONE A]	39	1	10	18	16	7	13.9	14	56	4	–	–	–
CC1(C)C=Cc2c(cc3occ(-c4ccc(O)cc4)c(=O)c3c2O)O1 [ALPINUMISOFLAVONE]	19	2	3	79	5	13	–	40	41	15	–	–	–
CC(C)=CCc1cc(/C=C/C(=O)c2ccc(O)c(CC=C(C)C)c2O)ccc1O [KANZONOL C]	19	0	79	90	34	96	–	27	6	21	6.1	9.15	0.45
CC(C)=CCc1c(O)c(CC=C(C)C)c2oc(-c3ccc(O)cc3)cc(=O)c2c1O	9	0	68	47	46	61	–	11	34	20	–	12.2	–
CC(C)=CCc1c(O)ccc([C@H]2COc3cc(O)c(CC=C(C)C)c(O)c3C2=O)c1O	14	7	44	98	0	2	–	25	37	4	–	–	0.84
CC1(C)C=Cc2cc(/C=C/C(=O)c3ccc(O)cc3O)ccc2O1	23	1	14	33	5	14	7.27	0	78	7	–	–	–
C=CC(C)(C)c1cc(/C=C/C(=O)c2ccc(O)cc2)c(OC)c(O)c1O	50	12	31	48	5	36	6.67	22	66	11	–	–	–
CC(C)=CCc1cc(/C=C/C(=O)c2ccc(O)cc2O)ccc1O [LICOAGROCHALCONE A]	16	16	2	98	3	12	–	2	25	2	–	–	0.97
CC(C)=CCc1cc(-c2cc(=O)c3c(O)c(CC=C(C)C)c(O)cc3o2)ccc1O	5	12	25	94	33	86	–	34	0	3	6.35	–	0.55
CC(C)=CCc1cc([C@@H]2CC(=O)c3c(cc(O)c(CC=C(C)C)c3O)O2)ccc1O [MACARANGAFLAVANONE B]	5	5	36	90	–	87	–	10	24	–	–	–	1.03
CC1(C)C=Cc2c(ccc(-c3cc4ccc(O)cc4o3)c2O)O1	22	14	0	15	4	31	3.1	5	73	11	–	–	–

— ChEMBL document CHEMBL4033705, “Screening for bioactive natural products from a 67-compound library of Glycyrrhiza inflata” (Bioorg Med Chem, 2017)
